Measured values published in patent US9149513B2, “Method and pharmacological composition for the diagnosis and treatment of male sub-fertility” (PERINESS LTD., priority 2006, dated 2015).

Tested on: intracellular sperm cell DNase
Experiment: Inhibition of intracellular sperm cell DNase by citrate
Assay type: cell-based
Details: 10 mM citrate, up to 8 hours, activity measured every hour
Experimental: Sperm cells were subjected to three cycles of freezing and thawing and were then centrifuged for 10 min (27,000 g, 4° C.). […] 0.3 ml of the supernatant was added to 0.6 ml of DNase activity buffer and the mixture was measured in a spectrophotometer at 260 nm against a reference that contained only buffer and medium. Calibration curves were made using a commercial bovine DNase I. Sperm cell internal DNase was measured in Kunitz units. One Kunitz unit is defined as the amount of DNase that produces an increase of 1 O.D. per minute at 260 nm in a 1 cm pathlength at pH 5 at 25° C., in a reaction buffer that contains 5 mM MgSO4x7H2O, 0.1 M NaAcetate pH 5 and 4 mg % Calf thymus DNA. Plasma DNase was measured in Bartoov units. One Bartoov unit (BU) is defined as the amount of enzyme that produces a ΔA260 of 0.001 per min in 1 cm pathlength at pH 7.5 at 25° C., in a reaction buffer that contains 0.1M Tris, 10 mM CaCl2, 10 mM MnCl2 and 0.05 mg/ml calf thymus DNA.
In order to examine whether the DNase inhibitor citrate can inhibit intracellular sperm cell DNase, sperm cells were incubated with or without 10 mM citrate for up to 8 hours. The intracellular DNase activity was measured every hour and the sum of the DNase activity was calculated.

O=C(O)CC(O)(CC(=O)O)C(=O)O [citrate]
sum of intracellular DNase activity, % of control sperm cells: 43%
